Assay results as given in patent US8217176B2, “Fused heterocyclic derivative and use thereof” (Takeda Pharmaceutical Company Limited, priority 2008, dated 2012).
pIC50: −log10 of the molar value. Counter-ions that a name gives are not always drawn.

System: NIH-3T3/Gli reporter cells
Experiment: Evaluation of compound: Shh-N-induced luciferase activity in NIH-3T3/Gli reporter cells (Smo inhibitory action)
Format: cell-based
Details: 48 hr; for inhibition at 1 µM: NIH3T3, 1 μM compound, mouse Shh-N end fragment supernatant, read-out: inhibition rate (%) at 1 μM; for pIC50: NIH3T3, mouse Shh-N end fragment supernatant, read-out: IC50 value (compound concentration necessary for achieving 50% of the maximum value of inhibition rate)
Protocol: HEK293 cells were grown in D-MEM medium (Invitrogen) containing 10% fetal bovine serum in a 10 cm dish and pcDNA3.1/mShh-N was introduced into the cells using FuGENE6 (Roche Applied Science). Thereafter, the HEK293 cells were cultured in a carbon dioxide gas incubator at 37° C. for 24 hours, and the medium was exchanged with D-MEM medium (Invitrogen) containing 2% fetal bovine serum. After culturing for 48 hr, a culture supernatant containing recombinant type mouse Shh-N end fragment was obtained by filtration using a filter ([…]).
Using D-MEM (Invitrogen) containing 10% fetal bovine serum, expression plasmid pcDNA3.1 and Gli reporter plasmid (pGL3/δ-cry promoter, 8×Gli binding site) produced by the method of Experimental Example 1 were introduced into NIH-3T3 cells grown in a 10 cm dish by the use of FuGENE6 (Roche Applied Science).
After culture for 24 hr, the cells were recovered, suspended in D-MEM medium containing 10% fetal bovine serum and supplemented with Geneticin (Life Technologies Oriental, Inc.) to a final concentration of 500 μg/ml, diluted to 10^4 cells/ml, plated on a 96 well plate, and cultured in a carbon dioxide gas incubator at 37° C. to give Geneticin resistant transformed cell line.
The obtained transformed cell line was cultured in a 96 well plate, mouse Shh-N end fragment obtained in Experimental Example 3 was added, and NIH-3T3/Gli reporter cell, which is a cell line capable of induction of luciferase expression, was selected.
NIH-3T3/Gli reporter cells cultured in D-MEM (Invitrogen) containing 10% fetal bovine serum were plated in a 96 well white plate at 1×10^4 cells/well, and cultured overnight in a carbon dioxide gas incubator at 37° C. The medium was removed, a compound (50 μl) and culture supernatant of mouse Shh-N end fragment-expressing HEK293 (D-MEM medium containing 2% fetal bovine serum, 50 μl) were added, and the cells were cultured for 48 hr in a carbon dioxide gas incubator at 37° C. Bright-Glo (Promega, 50 μl) was added, and the mixture was stirred, after which luciferase activity was measured by EnVision (PerkinElmer). The inhibition rate was calculated based on the luciferase activity of the control without addition of the compound as 100. The concentration of the compound and the inhibition rate were analyzed by PRISM3.00 (software of GraphPad), based on which the IC50 value (compound concentration necessary for achieving 50% of the maximum value of inhibition rate) of the compound was calculated.

SMILES: CCc1cc2c(c(OCC(F)(F)F)c(C(=O)NC3CCN(C(=O)CO)CC3)n2C)c(=O)n1CC(=O)c1cccc(Cl)c1 [Example 657, 5-[2-(3-chlorophenyl)-2-oxoethyl]-6-ethyl-N-[1-(hydroxyacetyl)piperidin-4-yl]-1-methyl-4-oxo-3-(2,2,2-trifluoroethoxy)-4,5-dihydro-1H-pyrrolo[3,2-c]pyridine-2-carboxamide]
- inhibition at 1 µM: 100%

SMILES: CCc1cc2c(c(OC)c(C(=O)NC3CCN(C(=O)CO)CC3)n2C)c(=O)n1CC(=O)c1ccccc1 [Example 131, 6-ethyl-N-[1-(hydroxyacetyl)piperidin-4-yl]-3-methoxy-1-methyl-4-oxo-5-(2-oxo-2-phenylethyl)-4,5-dihydro-1H-pyrrolo[3,2-c]pyridine-2-carboxamide]
- inhibition at 1 µM: 100%

SMILES: COc1c(C(=O)NC2CCN(c3ccncn3)CC2)n(C)c2c1c(=O)n(CC(=O)c1ccccc1)c1ccccc21 [Example 583, 3-methoxy-1-methyl-4-oxo-5-(2-oxo-2-phenylethyl)-N-(1-pyrimidin-4-ylpiperidin-4-yl)-4,5-dihydro-1H-pyrrolo[3,2-c]quinoline-2-carboxamide]
- inhibition at 1 µM: 100%

SMILES: CCN(CC)CCCC(C)NC(=O)c1sc2c(c1OC)c(=O)n(CC(=O)c1ccccc1)c1ccccc21 (stereo not drawn) [Example 13, N-[4-(diethylamino)-1-methylbutyl]-3-methoxy-4-oxo-5-(2-oxo-2-phenylethyl)-4,5-dihydrothieno[3,2-c]quinoline-2-carboxamide trifluoroacetate]
- inhibition at 1 µM: 100%
- pIC50: ≥ 6.00

SMILES: COc1c(C(=O)NC2CCN(C(=O)CO)CC2)n(C)c2c1c(=O)n(CC(=O)c1ccccc1)c1ccc(F)cc21 [Example 584, 8-fluoro-N-[1-(hydroxyacetyl)piperidin-4-yl]-3-methoxy-1-methyl-4-oxo-5-(2-oxo-2-phenylethyl)-4,5-dihydro-1H-pyrrolo[3,2-c]quinoline-2-carboxamide]
- inhibition at 1 µM: 100%

SMILES: COc1c(C(=O)NCCN2CCC(O)CC2)n(C)c2c1c(=O)n(CC(=O)c1ccccc1)c1ccccc21 [Example 69, N-[2-(4-hydroxypiperidin-1-yl)ethyl]-3-methoxy-1-methyl-4-oxo-5-(2-oxo-2-phenylethyl)-4,5-dihydro-1H-pyrrolo[3,2-c]quinoline-2-carboxamide]
- inhibition at 1 µM: 100%
- pIC50: ≥ 6.00

SMILES: COc1c(C(=O)N(C)C2CCN(C)C2)sc2c1c(=O)n(CC(=O)c1ccccc1)c1ccccc21 (stereo not drawn) [Example 16, 3-methoxy-N-methyl-N-(1-methylpyrrolidin-3-yl)-4-oxo-5-(2-oxo-2-phenylethyl)-4,5-dihydrothieno[3,2-c]quinoline-2-carboxamide trifluoroacetate]
- inhibition at 1 µM: 100%
- pIC50: ≥ 6.00

SMILES: COc1c(C(=O)NCCN2CCCCC2)sc2c1c(=O)n(CC(=O)c1ccccc1)c1ccccc21 [Example 9, 3-methoxy-4-oxo-5-(2-oxo-2-phenylethyl)-N-(2-piperidin-1-ylethyl)-4,5-dihydrothieno[3,2-c]quinoline-2-carboxamide trifluoroacetate]
- inhibition at 1 µM: 100%
- pIC50: ≥ 6.00

SMILES: CCCOc1c(C(=O)NC2CCN(C(=O)CO)CC2)n(C)c2cc(CC)n(CC(=O)c3ccccc3)c(=O)c12 [Example 510, 6-ethyl-N-[1-(hydroxyacetyl)piperidin-4-yl]-1-methyl-4-oxo-5-(2-oxo-2-phenylethyl)-3-propoxy-4,5-dihydro-1H-pyrrolo[3,2-c]pyridine-2-carboxamide]
- inhibition at 1 µM: 100%

SMILES: COc1c(C(=O)N(CCC#N)Cc2cccnc2)sc2c1c(=O)n(CC(=O)c1ccccc1)c1ccccc21 [Example 22, N-(2-cyanoethyl)-3-methoxy-4-oxo-5-(2-oxo-2-phenylethyl)-N-(pyridin-3-ylmethyl)-4,5-dihydrothieno[3,2-c]quinoline-2-carboxamide trifluoroacetate]
- inhibition at 1 µM: 91%
- pIC50: ≥ 6.00

SMILES: CCc1cc2c(c(OCC(F)(F)F)c(C(=O)NC3CCN(C(=O)CO)CC3)n2C)c(=O)n1Cc1ccccc1OC [Example 658, 6-ethyl-N-[1-(hydroxyacetyl)piperidin-4-yl]-5-(2-methoxybenzyl)-1-methyl-4-oxo-3-(2,2,2-trifluoroethoxy)-4,5-dihydro-1H-pyrrolo[3,2-c]pyridine-2-carboxamide]
- inhibition at 1 µM: 100%

SMILES: CCc1cc2c(c(OCCF)c(C(=O)NC3CCN(C(=O)CO)CC3)n2C)c(=O)n1CC(=O)c1ccccc1 [Example 142, 6-ethyl-3-(2-fluoroethoxy)-N-[1-(hydroxyacetyl)piperidin-4-yl]-1-methyl-4-oxo-5-(2-oxo-2-phenylethyl)-4,5-dihydro-1H-pyrrolo[3,2-c]pyridine-2-carboxamide]
- inhibition at 1 µM: 100%

SMILES: COc1c(C(=O)NCCO)sc2c1c(=O)n(CC(=O)c1ccccc1)c1ccccc21 [Example 32, N-(2-hydroxyethyl)-3-methoxy-4-oxo-5-(2-oxo-2-phenylethyl)-4,5-dihydrothieno[3,2-c]quinoline-2-carboxamide]
- inhibition at 1 µM: 95%
- pIC50: ≥ 6.00

SMILES: CCN(CC)CCN(C)C(=O)c1c(OC)c2c(=O)n(CC(=O)c3ccccc3)c3ccccc3c2n1C [Example 56, N-[2-(diethylamino)ethyl]-3-methoxy-N,1-dimethyl-4-oxo-5-(2-oxo-2-phenylethyl)-4,5-dihydro-1H-pyrrolo[3,2-c]quinoline-2-carboxamide hydrochloride]
- inhibition at 1 µM: 100%
- pIC50: ≥ 6.00

SMILES: CCN(CC)CCN(C)C(=O)c1sc2c(c1OC)c(=O)n(CCOc1ccccc1)c1ccccc21 [Example 51, N-[2-(diethylamino)ethyl]-3-methoxy-N-methyl-4-oxo-5-(2-phenoxyethyl)-4,5-dihydrothieno[3,2-c]quinoline-2-carboxamide]
- inhibition at 1 µM: 100%
- pIC50: ≥ 6.00

SMILES: COc1c(C(=O)N2CCCCC2CN)sc2c1c(=O)n(CC(=O)c1ccccc1)c1ccccc21 (stereo not drawn) [Example 73, 2-{[2-(aminomethyl)piperidin-1-yl]carbonyl}-3-methoxy-5-(2-oxo-2-phenylethyl)thieno[3,2-c]quinolin-4(5H)-one hydrochloride]
- inhibition at 1 µM: 100%
- pIC50: ≥ 6.00

SMILES: CCCOc1c(C(=O)NC2CCN(C(=O)CO)CC2)n(C)c2cc(C)n(CC(=O)c3ccccc3)c(=O)c12 [Example 137, N-[1-(hydroxyacetyl)piperidin-4-yl]-1,6-dimethyl-4-oxo-5-(2-oxo-2-phenylethyl)-3-propoxy-4,5-dihydro-1H-pyrrolo[3,2-c]pyridine-2-carboxamide]
- inhibition at 1 µM: 100%

SMILES: CCc1cc2c(c(OCC(F)(F)F)c(C(=O)NC3CCN(C(=O)CO)CC3)n2C)c(=O)n1CC(=O)c1cccc(OC)c1 [Example 656, 6-ethyl-N-[1-(hydroxyacetyl)piperidin-4-yl]-5-[2-(3-methoxyphenyl)-2-oxoethyl]-1-methyl-4-oxo-3-(2,2,2-trifluoroethoxy)-4,5-dihydro-1H-pyrrolo[3,2-c]pyridine-2-carboxamide]
- inhibition at 1 µM: 100%
